Format in all cases: cell-based
Assay [1] has as its system HCC827-ASV cells (human EGFR exon 20 insertion mutant A769_D770insASV). The assay can be described thus: Cell growth inhibition (CellTiter-Glo, 3 days) in HCC827-ASV. The following applies: 72 h, 3 days after administration. In a few lines:
(§1)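 Growth inhibition used a CellTiter-Glo luminescence read-out after 3 days of compound exposure at various concentrations. Cells were plated the day before at 5000/well in RPMI plus 10% FBS. The lines are HCC827 transduced by lentivirus with codon-optimized EGFR ASV or ERBB2 YVMA exon 20 insertions.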

For assay [2], the system named is HCC827-YVMA cells (human ERBB2 exon20 insertion mutant A775_G776ins YVMA). The experiment in a line: Cell growth inhibition (CellTiter-Glo, 3 days) in HCC827-YVMA. The following applies: 72 h, 3 days after administration. In a few lines: as §1
(In general: ATP-based viability assays read luminescence as a measure of living cells.)

Another assay has as its system HCC827 cells. The assay can be described thus: Cell growth inhibition (CellTiter-Glo, 3 days) in HCC827. To be noted: Homo sapiens, 72 h, 3 days after administration. In a few lines:
(§2)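 HCC827 cells were plated at 5000 cells/well in RPMI with 10% FBS, and A431 cells at the same density in DMEM with 10% FBS. After overnight attachment, compounds were added at various concentrations. Luminescence was recorded after plates were equilibrated to room temperature and incubated 10 min with reagent.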

The test system of assay [3] is HCC827-SVD cells (human EGFR exon 20 insertion mutant D770_N771 insSVD). The assay can be described thus: Cell growth inhibition (CellTiter-Glo, 3 days) in HCC827-SVD. To be noted: 72 h, 3 days after administration. In a few lines:
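HCC827 cells carrying lentiviral codon-optimized EGFR D770_N771 insSVD, with endogenous EGFR knocked out by CRISPR (single clone), seeded at 5000 cells/well in RPMI with 10% FBS. Viability read by CellTiter-Glo luminescence.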

The subject of the next assay is A431 cells. The assay can be described thus: Cell growth inhibition (CellTiter-Glo, 3 days) in A431. To be noted: Homo sapiens, A-431, 72 h, 3 days after administration. In a few lines:
as §2

The structures appear in SMILES notation.

The source of these data is US20240398805A1, “QUINAZOLINE DERIVED COMPOUNDS AS EGFR INHIBITORS AND THEIR USES THEREOF” (ACCUTAR BIOTECHNOLOGY INC., priority 2021, published 2024).

As for `C=CC(=O)N1CCC(Nc2cc3c(Nc4ccc(Oc5ccnc(-c6nc(C)ns6)c5)cc4F)ncnc3cc2OC)CC1` [Example 192, 1-(4-((4-((2-fluoro-4-((2-(3-methyl-1,2,4-thiadiazol-5-yl)pyridin-4-yl)oxy)phenyl)amino)-7-methoxyquinazolin-6-yl)amino)piperidin-1-yl)prop-2-en-1-one], the GI50 was under 30 nM in assay [1]; under 30 nM in assay [2]; 60 to 100 nM in the assay on HCC827 cells; under 30 nM in assay [3]; 100 to 300 nM with A431 cells.
In the case of `C=CC(=O)N1CCC(Nc2cc3c(Nc4ccc(Oc5ccnc(N6CCC(F)(F)C6)c5)cc4F)ncnc3cc2OC)CC1` [Example 194, 1-(4-((4-((4-((2-(3,3-difluoropyrrolidin-1-yl)pyridin-4-yl)oxy)-2-fluorophenyl)amino)-7-methoxyquinazolin-6-yl)amino)piperidin-1-yl)prop-2-en-1-one], the GI50 is under 30 nM in assay [1]; under 30 nM in assay [2]; 60 to 100 nM with HCC827 cells; under 30 nM in assay [3]; 300 to 600 nM with A431 cells.
On to `C=CC(=O)N1CCC(Nc2cc3c(Nc4ccc(Oc5ccnc(N6CC[C@@H](F)C6)c5)cc4F)ncnc3cc2OC)CC1` [Example 195, (R)-1-(4-((4-((2-fluoro-4-((2-(3-fluoropyrrolidin-1-yl)pyridin-4-yl)oxy)phenyl)amino)-7-methoxyquinazolin-6-yl)amino)piperidin-1-yl)prop-2-en-1-one], for which the GI50 in assay [1] was under 30 nM; in assay [2], under 30 nM; in the assay on HCC827 cells, 100 to 300 nM; in assay [3], under 30 nM; in the assay on A431 cells, 600 to 1000 nM.
Consider `C=CC(=O)N1CCC(Nc2cc3c(Nc4ccc(Oc5ccnc(N6CC[C@H](F)C6)c5)cc4F)ncnc3cc2OC)CC1` [Example 196, (S)-1-(4-((4-((2-fluoro-4-((2-(3-fluoropyrrolidin-1-yl)pyridin-4-yl)oxy)phenyl)amino)-7-methoxyquinazolin-6-yl)amino)piperidin-1-yl)prop-2-en-1-one], for which the GI50 in assay [1] was under 30 nM; in assay [2] it was under 30 nM; in the assay with HCC827 cells it was 60 to 100 nM; in assay [3], under 30 nM; with A431 cells, 100 to 300 nM.
As to `C=CC(=O)N1CCC(Nc2cc3c(Nc4ccc(Oc5ccnc(N6CC[C@@H](C)C6)c5)cc4F)ncnc3cc2OC)CC1` [Example 197, (R)-1-(4-((4-((2-fluoro-4-((2-(3-methylpyrrolidin-1-yl)pyridin-4-yl)oxy)phenyl)amino)-7-methoxyquinazolin-6-yl)amino)piperidin-1-yl)prop-2-en-1-one], the GI50 in assay [1] is under 30 nM; in assay [2], under 30 nM; with HCC827 cells, 60 to 100 nM; in assay [3] it was under 30 nM; in the assay on A431 cells, 300 to 600 nM.
For the compound `C=CC(=O)N1CCC(Nc2cc3c(Nc4ccc(Oc5ccnc(N6CC[C@H](C)C6)c5)cc4F)ncnc3cc2OC)CC1` [Example 198, (S)-1-(4-((4-((2-fluoro-4-((2-(3-methylpyrrolidin-1-yl)pyridin-4-yl)oxy)phenyl)amino)-7-methoxyquinazolin-6-yl)amino)piperidin-1-yl)prop-2-en-1-one], the GI50 is under 30 nM in assay [1]; under 30 nM in assay [2]; 30 to 60 nM with HCC827 cells; under 30 nM in assay [3]; 600 to 1000 nM with A431 cells.
For `C=CC(=O)N1CCC(Nc2cc3c(Nc4ccc(Oc5ccnc(N6CC7CC7C6)c5)cc4F)ncnc3cc2OC)CC1` (stereo not shown) [Example 199, 1-(4-((4-((4-((2-(3-azabicyclo[3.1.0]hexan-3-yl)pyridin-4-yl)oxy)-2-fluorophenyl)amino)-7-methoxyquinazolin-6-yl)amino)piperidin-1-yl)prop-2-en-1-one], the GI50 is under 30 nM in assay [1]; under 30 nM in assay [2]; 100 to 300 nM with HCC827 cells; under 30 nM in assay [3]; 60 to 100 nM in the assay with A431 cells.
Take `C=CC(=O)N1CCC(Nc2cc3c(Nc4ccc(Oc5ccnc(N6CCC(C)(C#N)CC6)c5)cc4F)ncnc3cc2OC)CC1` [Example 200, 1-(4-(4-((6-((1-acryloylpiperidin-4-yl)amino)-7-methoxyquinazolin-4-yl)amino)-3-fluorophenoxy)pyridin-2-yl)-4-methylpiperidine-4-carbonitrile]: the GI50 is 30 to 60 nM in assay [1]; 60 to 100 nM in assay [2]; 60 to 100 nM with HCC827 cells; 30 to 60 nM in assay [3]; at least 1000 nM in the assay on A431 cells.
As to `C=CC(=O)N1CCC(Nc2cc3c(Nc4ccc(Oc5ccnc(N6CC(F)(F)C6)c5)cc4F)ncnc3cc2OC)CC1` [Example 201, 1-(4-((4-((4-((2-(3,3-difluoroazetidin-1-yl)pyridin-4-yl)oxy)-2-fluorophenyl)amino)-7-methoxyquinazolin-6-yl)amino)piperidin-1-yl)prop-2-en-1-one], the GI50 is under 30 nM in assay [1]; under 30 nM in assay [2]; 60 to 100 nM with HCC827 cells; under 30 nM in assay [3]; 600 to 1000 nM in the assay with A431 cells.
As to `C=CC(=O)N1CCC(Nc2cc3c(Nc4ccc(Oc5ccnc(N6CC(C)(C)C6)c5)cc4F)ncnc3cc2OC)CC1` [Example 202, 1-(4-((4-((4-((2-(3,3-dimethylazetidin-1-yl)pyridin-4-yl)oxy)-2-fluorophenyl)amino)-7-methoxyquinazolin-6-yl)amino)piperidin-1-yl)prop-2-en-1-one], the GI50 in assay [1] was under 30 nM; in assay [2], under 30 nM; with HCC827 cells, under 30 nM; in assay [3], under 30 nM; with A431 cells it was 100 to 300 nM.
Take `C=CC(=O)N1CCC(Nc2cc3c(Nc4ccc(Oc5ccnc(N6CC(C)(O)C6)c5)cc4F)ncnc3cc2OC)CC1` [Example 203, 1-(4-((4-((2-fluoro-4-((2-(3-hydroxy-3-methylazetidin-1-yl)pyridin-4-yl)oxy)phenyl)amino)-7-methoxyquinazolin-6-yl)amino)piperidin-1-yl)prop-2-en-1-one]: the concentration for 50% growth inhibition (GI50) is under 30 nM in assay [1]; under 30 nM in assay [2]; 100 to 300 nM in the assay with HCC827 cells; under 30 nM in assay [3]; 100 to 300 nM with A431 cells.
For the compound `C=CC(=O)N1CCC(Nc2cc3c(Nc4ccc(Oc5ccnc(N6CC7(CCOCC7)C6)c5)cc4F)ncnc3cc2OC)CC1` [Example 204, 1-(4-((4-((4-((2-(7-oxa-2-azaspiro[3.5]nonan-2-yl)pyridin-4-yl)oxy)-2-fluorophenyl)amino)-7-methoxyquinazolin-6-yl)amino)piperidin-1-yl)prop-2-en-1-one], the GI50 in assay [1] is under 30 nM; in assay [2], under 30 nM; with HCC827 cells, 60 to 100 nM; in assay [3], under 30 nM; with A431 cells, 100 to 300 nM.
Take `C=CC(=O)N1CCC(Nc2cc3c(Nc4ccc(Oc5ccnc(N6CC(C)(C#N)C6)c5)cc4F)ncnc3cc2OC)CC1` [Example 205, 1-(4-(4-((6-((1-acryloylpiperidin-4-yl)amino)-7-methoxyquinazolin-4-yl)amino)-3-fluorophenoxy)pyridin-2-yl)-3-methylazetidine-3-carbonitrile]: the GI50 was under 30 nM in assay [1]; under 30 nM in assay [2]; under 30 nM in the assay on HCC827 cells; under 30 nM in assay [3]; 100 to 300 nM in the assay on A431 cells.
For `C=CC(=O)N1CCC(Nc2cc3c(Nc4ccc(Oc5ccnc(N6CC(O)(C(F)(F)F)C6)c5)cc4F)ncnc3cc2OC)CC1` [Example 206, 1-(4-((4-((2-fluoro-4-((2-(3-hydroxy-3-(trifluoromethyl)azetidin-1-yl)pyridin-4-yl)oxy)phenyl)amino)-7-methoxyquinazolin-6-yl)amino)piperidin-1-yl)prop-2-en-1-one], the GI50 is under 30 nM in assay [1]; under 30 nM in assay [2]; 60 to 100 nM with HCC827 cells; under 30 nM in assay [3]; 100 to 300 nM with A431 cells.
As to `C=CC(=O)N1CCC(Nc2cc3c(Nc4ccc(Oc5ccnc(N6CC(C)(OC)C6)c5)cc4F)ncnc3cc2OC)CC1` [Example 207, 1-(4-((4-((2-fluoro-4-((2-(3-methoxy-3-methylazetidin-1-yl)pyridin-4-yl)oxy)phenyl)amino)-7-methoxyquinazolin-6-yl)amino)piperidin-1-yl)prop-2-en-1-one], the GI50 is under 30 nM in assay [1]; under 30 nM in assay [2]; 30 to 60 nM with HCC827 cells; under 30 nM in assay [3]; 100 to 300 nM in the assay with A431 cells.
`C=CC(=O)N1CCC(Nc2cc3c(Nc4ccc(Oc5ccnc(N6CC(CC#N)C6)c5)cc4F)ncnc3cc2OC)CC1` [Example 208, 2-(1-(4-(4-((6-((1-acryloylpiperidin-4-yl)amino)-7-methoxyquinazolin-4-yl)amino)-3-fluorophenoxy)pyridin-2-yl)azetidin-3-yl)acetonitrile]: the GI50 in assay [1] is under 30 nM; in assay [2], 30 to 60 nM; with HCC827 cells, 100 to 300 nM; in assay [3], under 30 nM; with A431 cells, 600 to 1000 nM.
Turning to `C=CC(=O)N1CCC(Nc2cc3c(Nc4ccc(Oc5ccnc(CN6CCCC6)c5)cc4F)ncnc3cc2OC)CC1` [Example 209, 1-(4-((4-((2-fluoro-4-((2-(pyrrolidin-1-ylmethyl)pyridin-4-yl)oxy)phenyl)amino)-7-methoxyquinazolin-6-yl)amino)piperidin-1-yl)prop-2-en-1-one], the GI50 in assay [1] was in the range of 100 to 300 nM; in assay [2], 60 to 100 nM; in the assay on HCC827 cells, 100 to 300 nM; in assay [3], 100 to 300 nM; in the assay with A431 cells, 600 to 1000 nM.

For orientation: GI50 means the concentration at which growth is held to half of that of the control. The low end stands for more potent growth inhibition, the high end for less potent growth inhibition.
